In the test the target is T1, PD brain-derived alpha-synuclein aggregates (Homo sapiens, UniProt P37840).
T1 construct: PD brain-derived alpha-synuclein aggregates were spotted onto microarray slides; from tissue; host or cells: human Parkinson's disease patient brain
In words: Micro-radiobinding competition assay for the determination of binding affinity. To be noted: for inhibition at 0.1 µM / Competition at 100 nM (%): non-radiolabelled example compound at 100 nM; for inhibition at 0.1 µM / inhibition at 1 µM / Competition at 100 nM (%) / Competition at 1 μM (%): competition with tritiated reference alpha-synuclein ligand (20 nM or 30 nM), 100% = excess non-radiolabelled reference ligand; for inhibition at 0.1 µM: read-out: Competition at 100 nM (%); for inhibition at 1 µM / Competition at 1 μM (%): non-radiolabelled example compound at 1 μM; for inhibition at 1 µM: read-out: Competition at 1 μM (%). The procedure: Micro-Radiobinding Competition Assay for the Determination of Binding Affinity
PD brain-derived alpha-synuclein aggregates were spotted onto microarray slides. The slides were incubated with tritiated reference alpha-synuclein ligand at 20 nM or 30 nM and the example compounds (non-radiolabelled) at 1 μM and 100 nM. In some cases, the non-radiolabelled example compounds were further assessed for a range of different concentrations, varying from 0.05 nM to 2 μM. After incubation, slides were washed and scanned by a real-time autoradiography system (BeaQuant, ai4R). Quantification of the signal was performed by using the Beamage image analysis software (ai4R). Non-specific signal was determined with an excess of non-radiolabelled reference alpha-synuclein ligand (2 μM) and specific binding was calculated by subtracting the non-specific signal from the total signal. Competition was calculated as percent, where 0% was defined as the specific binding in the presence of vehicle and 100% as the values obtained in the presence of excess of the non-radiolabelled reference alpha-synuclein ligand. Ki values were calculated in GraphPad Prism7 by applying a nonlinear regression curve fit using a one site, specific binding model. All measurements were performed with at least two technical replicates.
Table 4: Assessment of binding affinity by micro-radiobinding competition assay on human PD brain-derived alpha-synuclein aggregates.

For the compound `O=C1c2cn(-c3ccc(N4CC[C@H](F)C4)nn3)nc2CN1c1ccns1` [Example 32, (S)-2-(6-(3-fluoropyrrolidin-1-yl)pyridazin-3-yl)-5-(isothiazol-5-yl)-5,6-dihydropyrrolo[3,4-c]pyrazol-4(2H)-one], the inhibition at 0.1 µM was found to be 61% and the inhibition at 1 µM was found to be 77%.

For `O=C1c2cn(-c3ccc(N4CCCCC(F)C4)nn3)nc2CN1c1cccnc1` (centres unmarked) [Example 33, 2-(6-(3-fluoroazepan-1-yl)pyridazin-3-yl)-5-(pyridin-3-yl)-5,6-dihydropyrrolo[3,4-c]pyrazol-4(2H)-one], the inhibition at 0.1 µM was 6% and the inhibition at 1 µM was determined as 35%.

Regarding `O=C1c2cn(-c3ccc(C(F)(F)F)nn3)nc2CN1c1cccnc1` [Example 35, 5-(pyridin-3-yl)-2-(6-(trifluoromethyl)pyridazin-3-yl)-5,6-dihydropyrrolo[3,4-c]pyrazol-4(2H)-one], the inhibition at 0.1 µM came to 29% and the inhibition at 1 µM turned out to be 34%.

For the compound `O=C1c2cn(-c3cnc(N4CC[C@H](F)C4)nc3)nc2CN1c1cccnc1` [Example 36, 2-2-[(3S)-3-fluoropyrrolidin-1-yl]pyrimidin-5-yl-5-(pyridin-3-yl)-2H,4H,5H,6H-pyrrolo[3,4-c]pyrazol-4-one], the “Competition at 100 nM (%)” value came to 37% and the “Competition at 1 μM (%)” value was found to be 64%.

Take `Cl.O=C1c2cn(-c3cnc(N4CC[C@@H](F)C4)nc3)nc2CN1c1cccnc1` [Example 37, 2-2-[(3R)-3-fluoropyrrolidin-1-yl]pyrimidin-5-yl-5-(pyridin-3-yl)-2H,4H,5H,6H-pyrrolo[3,4-c]pyrazol-4-one hydrochloride]: the “Competition at 100 nM (%)” value is reported as 32% and the “Competition at 1 μM (%)” value is reported as 78%. The Ki (commonly a measure of affinity in units of concentration, obtained from inhibition or displacement) (concentration range 0.05 nM to 2 μM, nonlinear regression, one site specific binding model) is 356 nM.

Values taken from patent US20250042905A1, “DIHYDROPYRROLO[3,4-C]PYRAZOLE DERIVATIVES AND THEIR USE IN DIAGNOSIS” (AC IMMUNE SA, priority 2021, published 2025).
